{
  "source": "patent US4956381A",
  "about": "“Treating tissue calcium depletion or degenerative processes in bone or cartilage” (Sandoz Ltd., priority 1987, dated 1990)",
  "key": {"[1]": {"tested_on": "human monocytes", "assay": "Effect on the secretion of monokines (IL-1, TNF-α, IL-6)", "assay_type": "cell-based", "conditions": "IL-1 and TNF-α by RIA, IL-6 by bioassay", "experimental": "Besides IL-1, TNF-α and IL-6 are two well recognized monokines that are released from stimulated monocytes.\nCulture media from human monocytes are prepared as described above. The IL-1 and TNF-α content is monitored by the RIA-test, IL-6 by bioassay as disclosed below.\nTo measure IL-6 in conditioned media from human monocytes, 2.4×10^4 cells/ml B13.29 in 0.2 ml are cultured on 96-well plates (Costar) for 48 h with culture media, diluted in serum free Iscove's modified Dulbecco's medium supplemented with 200 U/ml of recombinant IL-6, 50 μM 2-mercaptoethanol and antibiotics. The proliferation rates are determined using a ^3 H-thymidine pulse (1 μC/well) during the final 6 h. The incorporated radioactivity is collected on filter paper, counted and related to a standard preparation of IL-6."}, "[2]": {"tested_on": "mouse peritoneal macrophages", "assay": "Mouse macrophage monokine inhibition (chondrocyte bioassay)", "assay_type": "cell-based", "conditions": "24 h, substantially pure Z-isomeric form, 3-5 separate experiments in triplicate, read-out: ED50 (suppression of monokine release)", "experimental": "Purified IL-1, [Schnyder et al., J. Immunol. […] [c.f. […] J. Rheumatol.\nCulture media are diluted 1:1 (v:v) with fresh medium and added to confluent rabbit chondrocytes. […] activity in the chondrocyte culture medium is monitored after a further two days."}, "[3]": {"tested_on": "recombinant human IL-1", "assay": "Recombinant human IL-1 induced mouse thymocyte proliferation", "assay_type": "cell-based", "conditions": "75 ng/ml rh IL-1", "experimental": "Lymphocyte proliferation is the standard test for monokine activity. It is highly sensitive, though relatively unspecific, with IL-2, phorbol myristate acetate, concanavalin A' g-type-prostaglandin and indomethacin-nall effecting disturbance. Human monocyte culture media are prepared as described under I.I.b. above, diluted 1:10, 1:20 and 1:40 (v:v), and added to […] (obtained from C3H/HeJ mice) Dulbecco's modified Eagle's medium, containing 20 mM hydroxyethyl-piperazin-ethane-sulfonic acid, 12 mM NaHCO3, 2 mM glutamine, 2% foetal bovine serum, 10 μM 2-mercaptoethanol, […] and antibiotics. The cells are incubated for 2 days in 96-well culture plates and the proliferation rate determined using a ^3 H-thymidine pulse (1 μC/well) during the final 6 hours. The incorporated radioactivity is collected on filter paper and counted. […] Thus determined ED50 s for the compounds D2 and K1 each in substantially pure Z-isomeric form in a series of 2 separate experiments each with 3 parallel determinations are of the order of 30 μM\nIn order to rule out an antagonistic effect or a direct influence of the COMPOUNDS OF THE INVENTION on the proliferation of mouse thymocytes which are used above in the LAF-test, the effect of the COMPOUNDS OF THE INVENTION on the incorporation of ^3 H-thymidine Is determined after thymocyte stimulation with recombinant human IL-1 or IL-2."}, "[4]": {"tested_on": "psoriatic arthritis or seronegative spondylarthrosis or osteoarthrosis", "assay": "Clinical trial IV: degenerative joint disease", "assay_type": "in vivo, human", "conditions": "ca. 200 to 1200 mg p.o./day, 8 weeks", "experimental": "COMPOUND OF THE INVENTION, e.g. compound D2 or K1 in substantially pure Z-isomeric form, is administered at dosages of from ca. 200 to 1200 mg/p.o./day, once or in divided dosages up to 4×daily for 8 weeks. The subjects are examined at a regular interval of 2 weeks for disease progression on parameters such as pain sensation at the joints, evaluation of the functional capacity according to Steinbrocker, hand grip strength or Richtie Index."}, "[5]": {"tested_on": "IL-1β", "assay": "RIA-Kit IL-1 quantification in human monocyte cultures", "assay_type": "cell-based", "experimental": "(§1) Mononuclear cells are obtained from the blood of healthy volunteers via centrifugation and cultivated on tissue culture dishes with test compound at varying concentrations [Schnyder et al., J. Immunol., 138, 496-503 (1987)]. The non-adherent lymphocytes are removed after 4 hours by washing several times. Fresh medium, test compound and lipopolysaccharide (LPS) as stimulant are added and the monocytes incubated for further 19 hours. The pooled culture media are diluted 1:10 (v:v) with fresh medium and added to confluent rabbit chondrocytes. MP activity in the chondrocyte culture medium is assayed after a further 2 days. COMPOUNDS OF THE INVENTION, in particular compounds D2 and K1, are active in suppressing monokine release in the above test method at concentrations of the order of from about 30 to about 100 μM. Thus determined ED50 S for the compounds D2 and K1 each in substantially pure Z-isomeric form in a series of 3 or 7 separate experiments each with 3 parallel determinations are, for both compounds, of the order of 60 to 100 μM.\nThe procedures of example 1.1.b. above are repeated and IL-1 concentrations in recovered, undiluted culture medium determined employing a CISTRON IL-1 radioimmuno assay kit (the CISTRON kit is obtainable from Cistron, 10, Bloomfield Avenue, P.O. Box 2004, Pine Brook, NJ 07 058 USA. It is IL-1β specific and recognises both intra- and extra-cellular material)."}, "[6]": {"tested_on": "IL-1", "assay": "IL-1 induced secretion of metalloproteinase (MP) in chondrocytes", "assay_type": "cell-based", "conditions": "2 days incubation", "experimental": "Furthermore the influence on IL-1 induced secretion of MP is determined using chondrocytes as a target system for IL-1. IL-1 (Genzyme Corporation,USA) is added with or without a COMPOUND OF THE INVENTION or Dexamethasone (control) to chondrocytes and the activity or metalloproteinase is determined in the supernatant media of 2 days incubation period."}, "[7]": {"tested_on": "pulmonary fibrosis", "assay": "Pulmonary fibrosis (bleomycin induced)", "assay_type": "in vivo, New Zealand white rabbits", "conditions": "ca. 2.5 to 60 mg/kg/day p.o.; substantially pure Z-isomeric form; vs placebo", "experimental": "Testing is carried out in accordance with the general methodology described by G. J. Laurent et al. in Eur. J. Clin. Invest. (1981) 11, 441-448. Pulmonary fibrosis is induced in groups of 4 New Zealand white rabbits (aged 127 days at commencement of the experiment), each weighing 2.0-2.5 kg, by intratracheal instillation of 10 mg/kg bleomycin. The lungs of test animals are examined 2, 4 and 8 weeks later."}, "[8]": {"tested_on": "monocytes", "assay": "Effect on monocyte adherence", "assay_type": "cell-based, human", "conditions": "4 h; DNA and LDH of adherent monocytes", "experimental": "Monocytes of freshly harvested human mononuclear cells are prepared in presence of the compound to be tested or a vehicle. After 4 h the medium is aspirated and the cell monolayer is washed as usual. The adherent monocytes are then lysed using digitonin in water, and the amount of DNA and the activity of the cytosol enzyme LDH is measured."}, "[9]": {"tested_on": "human monocytes", "assay": "LAF-test (thymocyte proliferation), monokine production by human monocytes", "assay_type": "cell-based", "conditions": "Monocyte, substantially pure Z-isomeric form, 2 separate experiments, 3 parallel determinations, read-out: ED50 (inhibition of monokine production)", "experimental": "as §1\nLymphocyte proliferation is the standard test for monokine activity. […] The cells are incubated for 2 days in 96-well culture plates and the proliferation rate determined using a ^3 H-thymidine pulse (1 μC/well) during the final 6 hours. The incorporated radioactivity is collected on filter paper and counted. […]"}, "[10]": {"conditions": "CISTRON IL-1 radioimmuno assay, human monocytes"}},
  "data": [
    {"compound": "COC1=Cc2ccccc2/C(=C/C(=O)O)c2ccsc21", "note": "[Compound D2, [10-Methoxy-4H-benzo[4,5]cyclohepta[1,2-b]thiophen-4-ylidene]-acetic acid]", "values": [
      {"measurement": "inhibition of release of IL-1 compared with IL-6 and TNF-α", "setting": "[1]", "value": "inhibit the release of IL-1 in a more significant rate than that of IL-6 and TNF-α"},
      {"measurement": "IC50", "setting": "[2]", "value": "~100", "unit": "µM"},
      {"measurement": "concentration dependency of influence on rh IL-1 induced proliferation", "setting": "[3]", "value": "no concentration dependency is detectable"},
      {"measurement": "influence on recombinant human IL-1 induced proliferation", "setting": "[3]; 3H-thymidine incorporation, mouse thymocytes", "value": "no significant influence"},
      {"measurement": "condition (degenerative joint disease)", "setting": "[4]", "value": "improvement in condition after the 8 week treatment period"},
      {"measurement": "extra-cellular IL-1 level", "setting": "[5]; [10]", "value": "extra-cellular content is reduced significantly"},
      {"measurement": "intracellular IL-1 level", "setting": "[5]; [10]", "value": "remain substantially unaffected"},
      {"measurement": "IC50", "setting": "[5]; Homo sapiens, Monocyte, 19 h, substantially pure Z-isomeric form, 2-8 experiments, 3 parallel determinations, read-out: ED50 for extra-cellular IL-1 level suppression", "value": "~40", "unit": "µM"},
      {"measurement": "influence on IL-1 induced secretion of MP", "setting": "[6]", "value": "do not influence the IL-1 induced secretion of MP"},
      {"measurement": "pulmonary fibrosis", "setting": "[7]", "value": "substantial reduction of pulmonary fibrosis"},
      {"measurement": "adherence of the monocytes", "setting": "[8]", "value": "neither the COMPOUNDS OF THE INVENTION, in particular compound D2, nor the vehicle reduce the adherence of the monocytes"},
      {"measurement": "IC50", "setting": "[9]", "value": "~30", "unit": "µM"}
    ]}
  ]
}
